Assay results from patent US20210346328A1, “COMPOSITIONS AND METHODS FOR TREATING METABOLIC DISORDERS” (The Johns Hopkins University, priority 2018, published 2021).

Key:
CREB signaling in VMH = experiment: CREB phosphorylation in hypothalamus (VMH) after injection; assay type: in vivo, mouse
Protocol: FIG. 28. (A) Western blot analysis of HTR2C and p-CREB in hypothalamus tissue from 12-week-old mice after PGE2 or vehicle injection at different periods. […] DAPI stains nuclei blue. Scale bar, 50 μm.
The femurs were collected and fixed in 4% paraformaldehyde overnight and decalcified by using 10% EDTA (pH, 7.4) (Amresco, 0105) for 21 days. The samples were then dehydrated with 30% sucrose for 24 h and embedded in paraffin or optimal cutting temperature compound (Sakura Finetek). 4-μm-thick coronal-oriented sections of the femur were prepared for hematoxylin and eosin staining. The femurs were fixed for 4 h with 4% paraformaldehyde at 4° C. and then decalcified at 4° C. using 0.5M EDTA (pH, 7.4) for 24 h with constant shaking. The samples were dehydrated in 20% sucrose and 2% polyvinylpyrrolidone (PVP) solution for 24 h and embedded in 8% gelatin (Sigma-Aldrich, G1890) in the presence of 20% sucrose and 2% PVP. Forty-μm-thick coronal-oriented sections of the femurs were obtained.

DRG neurons = experiment: Calcium imaging of isolated DRG neurons; conditions: DRG neurons pre-incubated with 10 μM PGE2 for 5 min, relative to vehicle-treated neurons
[1] = test system: EP4 in the sensory nerves; experiment: PGE2-induced bone formation, trichrome and calcein double labeling; assay type: in vivo, mouse; conditions: EP4Avil−/− mice; 3 mg per kg per day PGE2 for 3 consecutive days
Protocol: (§1) FIG. 9. […] DAPI stains nuclei blue. […] Calcein was injected 5 days and 1 day before sacrifice. Representative images of calcein double labeling of femoral trabecular bone with quantification of mineral apposition rate (MAR) and bone formation rate (BFR). Scale bar, 20 μm. […] (Student t-test, except j with ANOVA)
(§2) As EP4 expression is also known to express in osteoblasts, osteoblastic cell-specific knockout EP4 mice were generated by crossing […] mice with osteocalcin-cre (OC-cre) mice (FIG. 12A).
(§3) A double-labeling procedure was performed to measure dynamic bone formation. Briefly, 0.1% calcein (Sigma-Aldrich, C0875) was injected in phosphate-buffered saline at a concentration of 10mg per kg into the mice subcutaneously 7 days and 1 day before sacrifice. The double-labeling images of undecalcified bone slices were captured using a fluorescence microscope. Trabecular bone formation in four randomly selected visual fields was analyzed in the distal metaphyseal area of the femur.

[2] = target: EP4 in the sensory nerves (Mus musculus, UniProt P32240); experiment: as above; assay type: in vivo; conditions: wild-type mice; 3 mg per kg per day PGE2 for 3 consecutive days
Protocol: as §1, §2, §3

15-PGDH [3] = target: T1, 15-PGDH (Mus musculus, UniProt Q8VCC1); experiment: Liver regeneration after partial hepatectomy; assay type: in vivo; conditions: TrkAAvil−/− mice treated with SW033291 relative to WT littermates
T1 sequence (Q8VCC1 1-269): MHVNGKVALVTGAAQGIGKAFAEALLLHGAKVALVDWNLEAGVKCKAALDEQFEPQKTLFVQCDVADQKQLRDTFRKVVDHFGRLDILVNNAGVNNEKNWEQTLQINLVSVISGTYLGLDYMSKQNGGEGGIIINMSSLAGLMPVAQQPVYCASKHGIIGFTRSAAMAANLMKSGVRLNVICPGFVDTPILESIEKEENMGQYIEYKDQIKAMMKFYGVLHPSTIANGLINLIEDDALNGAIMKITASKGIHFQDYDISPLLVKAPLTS
From the text: FIG. 32. (A) Double-immunofluorescence images of liver tissue sections from TrkA^wt and TrkAAvil^−/− mice with vehicle or SW033291 treatment using antibodies against and Ki67 (red) and CGRP (green). DAPI stains nuclei blue. Percentages of the Ki67+cells are shown in the right panel. Scale bar, 100 μm.(B) BrdU staining images of liver tissue sections from TrkA^wt and TrkAAvil^−/− mice with vehicle or SW033291 treatment. Scale bar, […]. Percentages of the BrdU+cells are shown in the right panel. […] (ANOVA).
To further investigate whether PGE2 induces regeneration by sensory nerves of tissues other than bone, experiments were conducted that performed partial hepatectomy in TrkAAvil^−/− mice and their WT littermates treated with SW033291 or vehicle.
Partial hepatectomy was used for the liver regeneration model. 10- to 12-week-old […] male mice were anesthetized, as described above. A partial (two-thirds) hepatectomy was performed by resecting the median and left lateral hepatic lobes^54. The remnant livers were harvested after mice sacrifice. SW033291 was dissolved in a vehicle of 10% ethanol, 5% Cremophor EL, and 85% dextrose 5% in water.

15-PGDH [4] = target: T1, 15-PGDH; experiment: Bone regeneration after femoral bone marrow ablation; assay type: in vivo
From the text: FIG. 31. […] Scale bar: 1 mm. Selected areas for the measurements of bone volume (BV)/tissue volume (TV) were indicated with a yellow square. b Representative images of hematoxylin-eosin staining, double immunofluorescence analysis of CD31^+ Emcn^+ cells, and immunofluorescence analysis of Leptin receptor (LepR)^+ cells in the regeneration area. Scale bar, 100 μm. c Graphic illustration of this study. When bone density decreases by osteoclast bone resorption, PGE2 secretion by osteoblastic cells increases at bone remodeling sites. PGE2 activates EP4 receptor at sensory nerve to tune down sympathetic tones for osteoblast differentiation at the bone remodeling microenvironment. The sensory nerve controlling process is likely a temporal-spatial precision action. […] (ANOVA)
PGE2 has been reported recently to potentiate regeneration of multiple tissues (see, Zhang, Y. et al. Science 348, aaa2340, doi:10.1126/science.aaa2340 (2015)). To investigate whether PGE2 induces tissue regeneration through sensory nerves, experiments were conducted that assessed whether PGE2 induces bone regeneration. […] However, the regeneration of trabecular bone by SW033291 was obstructed in EP4Avil^−/− mice (FIG. 31A, B). […] Thus, PGE2 stimulates bone regeneration through sensory nerves.
The femurs were harvested from mice, and the soft tissue around the bone was removed, followed by fixation overnight using 4% paraformaldehyde. μCT analyses were performed by using a high-resolution μCT scanner (SkyScan, 1174). The voltage of the scanning procedure was 65 kv with a 153-μA current. The resolution was set to 8.7 μm per pixel. Reconstruction software (NRecon, v1.6, SkyScan), data analysis software (CTAn, v1.9, SkyScan), and 3D model visualization software (CTVol, v2.0, SkyScan) were used to analyze the diaphyseal cortical bone and the metaphyseal trabecular bone parameters of the femurs. Experiments were conducted that created cross-sectional images of the femur to perform 2D analyses of the cortical bone and 3D analyses of the trabecular bone. The region of interest (ROI) of the trabecular bone was drawn beginning from 5% of the femur length proximal to the distal metaphyseal growth plate and extending proximally for another 5% of the total femur length. The trabecular bone volume fraction (BV/TV), trabecular thickness (Tb. Th), trabecular number (Tb. N), and trabecular separation (Tb. Sp) were collected from the 3D analyses data and used to represent the trabecular bone parameters. The cortical bone ROI was drawn beginning from 20% of femur length proximal to distal metaphyseal growth plate and extending proximally to another 10% of the total femur length. […]

[5] = test system: sensory nerves of iDTRAvil mice; conditions: mouse, in vivo

Chain of EP4 in the sensory nerves (Mus musculus, UniProt P32240) (P32240 whole entry): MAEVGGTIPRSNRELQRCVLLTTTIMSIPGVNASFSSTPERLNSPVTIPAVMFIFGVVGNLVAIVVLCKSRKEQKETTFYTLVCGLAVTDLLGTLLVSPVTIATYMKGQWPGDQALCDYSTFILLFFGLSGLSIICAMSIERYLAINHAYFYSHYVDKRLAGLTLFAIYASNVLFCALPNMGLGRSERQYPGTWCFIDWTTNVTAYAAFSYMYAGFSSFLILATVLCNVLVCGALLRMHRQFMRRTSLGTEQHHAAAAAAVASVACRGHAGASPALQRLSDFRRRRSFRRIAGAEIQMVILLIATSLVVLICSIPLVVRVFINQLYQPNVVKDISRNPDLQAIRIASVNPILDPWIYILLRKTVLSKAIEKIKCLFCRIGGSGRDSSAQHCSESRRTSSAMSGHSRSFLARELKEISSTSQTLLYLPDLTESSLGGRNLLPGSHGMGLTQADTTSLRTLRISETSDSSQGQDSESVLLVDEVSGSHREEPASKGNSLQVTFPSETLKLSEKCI

## O=C(O)CCC/C=C\C[C@H]1C(=O)C[C@@H](O)[C@@H]1/C=C/[C@@H](O)CCc1ccccc1 [EP1/3 agonist]
CREB signaling in VMH; C57BL/6 mice, agonist 200 ug per kg, 6 hours, relative to vehicle-treated mice
  phosphorylation of CREB (pCREB level) in VMH: did not increase

## CCCCC[C@H](O)/C=C/[C@H]1[C@H](O)CC(=O)[C@@H]1C/C=C\CCCC(=O)O [PGE2, prostaglandin E2]
DRG neurons
  activated (illuminated) DRG neurons, calcium imaging: more illuminated DRG neurons
CREB signaling in VMH; 12-week-old mice after PGE2 injection
  phosphorylation of CREB in hypothalamus, Western blot time course: increased gradually
CREB signaling in VMH; EP4Avil−/− mice, 3 mg per kg PGE2, 6 h
  PGE2-induced CREB phosphorylation in VMH, immunostaining: abolished
CREB signaling in VMH; WT (EP4wt) mice, 3 mg per kg PGE2, 6 h after injection
  CREB phosphorylation in VMH, immunostaining: increased significantly
CREB signaling in VMH; Western blot, after PGE2 injection
  time of peak phosphorylation of CREB in hypothalamus: 6 h
[1]
  bone formation (trichrome, calcein double labeling: MAR, BFR): abolished
[2]
  bone formation (trichrome, calcein double labeling: MAR, BFR): significant bone formation

## CCCC[S+]([O-])c1sc2nc(-c3cccs3)cc(-c3ccccc3)c2c1N (stereo not shown) [SW033291]
15-PGDH [3]
  liver regeneration rate (BrdU and Ki67 staining): decreased significantly
15-PGDH [4]; EP4Avil−/− mice with or without injection of SW033291
  type H vessels in the regeneration area: almost undetectable
15-PGDH [4]; EP4Avil−/− mice, 10 mg per kg per day SW033291
  regeneration of trabecular bone: obstructed
15-PGDH [4]; EP4wt mice treated with SW033291
  type H vessel (CD31hi Endomucinhi) growth in the regeneration area: significantly increased
15-PGDH [4]; EP4wt mice, 10 mg per kg per day SW033291, relative to vehicle-treated controls
  trabecular bone regeneration (μCT, HE staining): boosted trabecular bone regeneration significantly

## diphtheria toxin [DTX]
[5]
  Sensory denervation (CGRP+ sensory nerves in femur): effectively induced
  amount of osteoid: significantly decreased
  bone formation (calcein double-labeling): reduced
  bone loss (μCT, femur): Significant bone loss
  bone mass in the vertebrae: decreased
  mineral apposition rate (calcein double-labeling): reduced
  motor neural activity (pole tests and grip strength tests): No motor neural activity was influenced
  number of osteoblasts: significantly decreased
  number of osteoclasts: unchanged
  sensory innervations in the vertebrae: decreased
  serum CTX level: unchanged
  serum osteocalcin level: significantly decreased
